From US20240376097A1, “BCL-2 Inhibitor” (BeiGene Ltd., priority 2020, published 2024)

How the values were obtained:
[1] = target: Recombinant human Bcl-2 protein (Homo sapiens (Human), UniProt P10415); assay: Bcl-2 TR-FRET Assay; format: binding; settings: Bcl-2 wild type, TR-FRET; read-out: Biochemical assay (IC50, nM) Bcl-2 WT
Method in brief: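 TR-FRET read (337 nm excitation, 520/490 nm emission) after 1 h with 0.5 nM FITC-labeled Bak peptide and Tb-cryptate anti-6His antibody. Bcl-2 at 0.05 nM had been pre-incubated 0.5 h with compound. IC50 fitted by four-parameter logistic equation.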

[2] = target: recombinant human Bcl-2-G101V protein (Homo sapiens (Human), UniProt P10415, G101V); assay: Bcl-2-G101V TR-FRET Assay; format: binding; settings: Bcl-2 G101V mutant, TR-FRET; read-out: Biochemical assay (IC50, nM) Bcl-2 G101V
Method in brief: (§1)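 Percent inhibition of the Bcl-2-G101V–ligand interaction was computed from the 490 nm to 520 nm emission ratio after 337 nm excitation, over increasing compound concentrations; a four-parameter logistic fit gave IC50.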

[3] = system: recombinant human Bcl-2-G101V protein; assay: Bcl-2-G101V TR-FRET Assay; format: binding; settings: ratio of biochemical IC50 Bcl-2 G101V / Bcl-2 WT
Method in brief: as §1

[4] = system: RS4;11 (BCL-2 dependent acute lymphoblastic leukemia cell line); assay: RS4;11 Cell Proliferation Assay; format: cell-based; settings: Homo sapiens, RS4-11, RS4;11 cells, read-out: Cellular proliferation assay (IC50, nM) RS4
Method in brief: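 Viability measured via CellTiter-Glo luminescence after a 48 h, 37 °C exposure to compounds (10 points, highest 1 μM). Seeding was 50,000 RS4;11 cells per well in 10% FBS RPMI-1640; IC50 given as mean.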

[5] = system: BCL-2 G101V knock-in cell line H96 (derive from RS4;11); assay: Bcl 2-G101V Knock-In RS4;11 Cell Proliferation Assay; format: cell-based; settings: Homo sapiens, RS4;11 Bcl-2 G101V knock-in clone H96, 48 hrs, CellTiter-GLO, read-out: Cellular proliferation assay (IC50, nM) RS4
Procedure: Biological Example: Bcl 2-G101V Knock-In RS4;11 Cell Proliferation Assay
(1) RS4;11 H96 Bcl 2-G101V Knock-In Cell Line Generation
Briefly, RS4;11 BCL2-G101V knock-in cell pool was generated using Crisper/Cas9 gene editing system and the BCL2-G101V knock-in single clone H96 was picked from the knock-in cell pool and validated by WES (whole exome-sequencing) and RNA-seq.
The BCL-2 dependent acute lymphoblastic leukemia (ALL) cell line, RS4;11(ATCC, CRL-1873), was cultured in RPMI-1640 complete medium (RPMI-1640 medium, HEPES (Gibco, 22400-105) supplemented with 10% fetal bovine serum (FBS) (Gibco, 10099-1441), 100 unit/ml penicillin and 100 μg/ml streptomycin (Gibco, 15140122)) and maintained in a humidified chamber at 37° C. containing 5% CO2.
To obtain BCL2-G101V knock-in cell pool, RS4;11 was co-transfected with the Cas9-gRNA which also expressed GFP label, and the Donor gene which contained the BCL2-G101V mutant sequence. After 48 hrs of electroporation, the GFP positive cells were collected through FACSAriaIII cell sorting system. Cell pool was recovered for 3 days and then cultured under 2 nM ABT-199 stress for 4 weeks. […] Then cells were plated in 96 well U-plate with 1 cell/well for 10000 wells for single clone selection. After 3-5 weeks growing, clones were successively screened by PCR sequencing. And three BCL2-G101V knock-in clones: H96, H142 and H233, have been picked out.
Three clones were validated by genome DNA and cDNA(mRNA) PCR sequencing, and BCL-2, BCL-xL and MCL-1 expression using Western Blot. The H96 clone was also validated by WES (whole exome-sequencing) and RNA-seq.
(2) Bcl 2-G101V Knock-In RS4;11 Cell Proliferation Assay
The BCL-2 G101V knock-in cell line H96 (derive from RS4;11) were used to study the cellular potency of BCL-2 inhibitors. The cells were cultured in RPMI-1640 complete medium (RPMI-1640 medium, HEPES (Gibco, 22400-105) supplemented with 10% fetal bovine serum (FBS) (Gibco, 10099-1441), 100 unit/ml penicillin and 100 μg/ml streptomycin (Gibco, 15140122)) and maintained in a humidified chamber at 37° C. containing 5% CO2. Each compound was serially diluted with 1 μM or 10 μM as the maximum concentration. To test the apoptotic effect of the compounds, the cells were seeded at 50,000 in 90 μl per well in 96-well plates and treated with 10-point dilution series of each compound for 48 hrs at 37° C. Cell viability was assessed after the treatment using CellTiter-GLO luminescent assay (Promega) according to the manufacturer's recommendations. Briefly, 30 μl of CellTiter-GLO reagent was added into 100 μl of cell culture. Mixture was agitated on an orbital shaker for 5 min to ensure cell lysis followed by 7 min incubation at room temperature to allow development and stabilization of luminescent signals, which corresponded to the quantity of ATP and thus the quantity of metabolically active cells. Luminescent signals were measured using PHERAstar FS reader (BMG). Mean IC50 values were determined with GraphPad Prism software.

**Q.** What does the source list for `COc1cc(CN2CCN(C3CC4(CCN(c5ccc(C(=O)NS(=O)(=O)c6ccc(NC[C@H]7CC[C@](C)(O)CC7)c([N+](=O)[O-])c6)c(Oc6cnc7[nH]ccc7c6)c5)CC4)C3)C(c3ccccc3C(C)C)C2)ccc1C1CC1` (stereo partly drawn) [Example 156, 2-((1H-pyrrolo[2,3-b]pyridin-5-yl)oxy)-4-(2-(4-(4-cyclopropyl-3-methoxybenzyl)-2-(2-isopropylphenyl)piperazin-1-yl)-7-azaspiro[3.5]nonan-7-yl)-N-((4-((((1r,4r)-4-hydroxy-4-methylcyclohexyl)methyl)amino)-3-nitrophenyl)sulfonyl)benzamide]?
**A.** IC50 [1]: 0.73 nM; IC50 [2]: 3.6 nM; Ratio of Bcl-2 G101V/WT [3]: 4.9; IC50 [4]: 0.375 nM; IC50 [5]: 1.42 nM

**Q.** For `COc1cc(CN2CCN(C3CC4(CCN(c5ccc(C(=O)NS(=O)(=O)c6ccc(NC[C@H]7CC[C@](C)(O)CC7)c([N+](=O)[O-])c6)c(Oc6cnc7[nH]ccc7c6)c5)CC4)C3)[C@H](c3ccccc3C(C)C)C2)ccc1F` [Example 121a, 2-((1H-pyrrolo[2,3-b]pyridin-5-yl)oxy)-4-(2-((R)-4-(4-fluoro-3-methoxybenzyl)-2-(2-isopropylphenyl)piperazin-1-yl)-7-azaspiro[3.5]nonan-7-yl)-N-((4-((((1r,4r)-4-hydroxy-4-methylcyclohexyl)methyl)amino)-3-nitrophenyl)sulfonyl)benzamide], which IC50 [1] is on record?
**A.** 0.12 nM

**Q.** And the IC50 [2]?
**A.** 0.4 nM

**Q.** What about the “Ratio of Bcl-2 G101V/WT” value [3] of the same compound?
**A.** 3.4

**Q.** What about the IC50 [4] of the same compound?
**A.** 0.153 nM

**Q.** What about the IC50 [5] of the same compound?
**A.** 0.603 nM

**Q.** What does the source list for `CC(C)c1ccccc1C1CN(Cc2ccc3c(c2)OC(F)(F)O3)CCN1C1CC2(CCN(c3ccc(C(=O)NS(=O)(=O)c4ccc(NC[C@H]5CC[C@](C)(O)CC5)c([N+](=O)[O-])c4)c(Oc4cnc5[nH]ccc5c4)c3)CC2)C1` (stereo partly drawn) [Example 168, 2-((1H-pyrrolo[2,3-b]pyridin-5-yl)oxy)-4-(2-(4-((2,2-difluorobenzo[d] [1,3]dioxol-5-yl)methyl)-2-(2-isopropylphenyl)piperazin-1-yl)-7-azaspiro[3.5]nonan-7-yl)-N-((4-((((1r,4r)-4-hydroxy-4-methylcyclohexyl)methyl)amino)-3-nitrophenyl)sulfonyl)benzamide]?
**A.** IC50 [1]: 0.79 nM; IC50 [2]: 4.6 nM; Ratio of Bcl-2 G101V/WT [3]: 5.9; IC50 [4]: 0.48 nM; IC50 [5]: 1.68 nM

**Q.** How did the IC50 [1] turn out when `CC(C)c1ccccc1[C@H]1CN(C(C)C)CCN1C1CC2(CCN(c3ccc(C(=O)NS(=O)(=O)c4ccc(NC[C@H]5CC[C@](C)(O)CC5)c([N+](=O)[O-])c4)c(Oc4cnc5[nH]ccc5c4)c3)CC2)C1` (single isomer, unassigned) [Example 3a, 2-((1H-pyrrolo[2,3-b]pyridin-5-yl)oxy)-N-((4-((((1r,4r)-4-hydroxy-4-methylcyclohexyl)methyl)amino)-3-nitrophenyl)sulfonyl)-4-(2-((S or R)-4-isopropyl-2-(2-isopropylphenyl)piperazin-1-yl)-7-azaspiro[3.5]nonan-7-yl)benzamide] was run?
**A.** 0.034 nM

**Q.** And the IC50 [2]?
**A.** 2.2 nM

**Q.** What about the “Ratio of Bcl-2 G101V/WT” value [3] of the same compound?
**A.** 64.7

**Q.** And the IC50 [4]?
**A.** 3.67 nM

**Q.** And the IC50 [5]?
**A.** 35.1 nM

**Q.** What does the source list for `COc1cc(CN2CCN(C3CC4(C3)CN(c3ccc(C(=O)NS(=O)(=O)c5ccc(NC[C@H]6CC[C@](C)(O)CC6)c([N+](=O)[O-])c5)c(Oc5cnc6[nH]cc(F)c6c5)c3)C4)[C@H](c3ccccc3C(C)C)C2)cc2c1OCCC2(C)C` [Example 333, 2-((3-fluoro-1H-pyrrolo[2,3-b]pyridin-5-yl)oxy)-N-((4-((((1r,4r)-4-hydroxy-4-methylcyclohexyl)methyl)amino)-3-nitrophenyl)sulfonyl)-4-(6-((R)-2-(2-isopropylphenyl)-4-((8-methoxy-4,4-dimethylchroman-6-yl)methyl)piperazin-1-yl)-2-azaspiro[3.3]heptan-2-yl) benzamide]?
**A.** IC50 [1]: 0.11 nM; IC50 [2]: 0.37 nM; Ratio of Bcl-2 G101V/WT [3]: 3.2; IC50 [4]: 0.13 nM; IC50 [5]: 0.26 nM

**Q.** For `COc1ccc(CN2CCN(C3CC4(CCN(c5ccc(C(=O)NS(=O)(=O)c6ccc(NC[C@H]7CC[C@](C)(O)CC7)c([N+](=O)[O-])c6)c(Oc6cnc7[nH]ccc7c6)c5)CC4)C3)[C@@H](c3ccccc3C(C)C)C2)cc1OC` [Example 81b], which IC50 [1] is on record?
**A.** 0.074 nM

**Q.** And the IC50 [2]?
**A.** 2 nM

**Q.** And the “Ratio of Bcl-2 G101V/WT” value [3]?
**A.** 27

**Q.** What about the IC50 [4] of the same compound?
**A.** 2.85 nM

**Q.** And the IC50 [5]?
**A.** 11.6 nM

**Q.** How did the IC50 [1] turn out when `CCc1cc(CN2CCN(C3CC4(CCN(c5ccc(C(=O)NS(=O)(=O)c6ccc(NC[C@H]7CC[C@](C)(O)CC7)c([N+](=O)[O-])c6)c(Oc6cnc7[nH]ccc7c6)c5)CC4)C3)C(c3ccccc3C(C)C)C2)ccc1OC` (stereo partly drawn) [Example 116, 2-((1H-pyrrolo[2,3-b]pyridin-5-yl)oxy)-4-(2-(4-(3-ethyl-4-methoxybenzyl)-2-(2-isopropylphenyl)piperazin-1-yl)-7-azaspiro[3.5]nonan-7-yl)-N-((4-((((1r,4r)-4-hydroxy-4-methylcyclohexyl)methyl)amino)-3-nitrophenyl)sulfonyl)benzamide] was run?
**A.** 0.42 nM

**Q.** What about the IC50 [2] of the same compound?
**A.** 2 nM

**Q.** And the “Ratio of Bcl-2 G101V/WT” value [3]?
**A.** 4.7

**Q.** What about the IC50 [4] of the same compound?
**A.** 0.58 nM

**Q.** What about the IC50 [5] of the same compound?
**A.** 4.76 nM

**Q.** Which results are given for `COc1cc(CN2CCN(C3CC4(C3)CN(c3ccc(C(=O)NS(=O)(=O)c5ccc(NC[C@H]6CC[C@](C)(O)CC6)c([N+](=O)[O-])c5)c(Oc5cnc6[nH]ccc6c5)c3)C4)[C@H](c3ccccc3C(C)C)C2)cc(C)c1OC` [Example 234, 2-((1H-pyrrolo[2,3-b]pyridin-5-yl)oxy)-4-(6-((R)-4-(3,4-dimethoxy-5-methylbenzyl)-2-(2-isopropylphenyl)piperazin-1-yl)-2-azaspiro[3.3]heptan-2-yl)-N-((4-((((1r,4r)-4-hydroxy-4-methylcyclohexyl)methyl)amino)-3-nitrophenyl)sulfonyl)benzamide]?
**A.** IC50 [1]: 0.087 nM; IC50 [2]: 0.32 nM; Ratio of Bcl-2 G101V/WT [3]: 3.7; IC50 [4]: 0.09 nM; IC50 [5]: 0.35 nM

**Q.** How did the IC50 [1] turn out when `COc1cc(CN2CCN(C3CC4(C3)CN(c3ccc(C(=O)NS(=O)(=O)c5ccc(NC[C@H]6CC[C@](C)(O)CC6)c([N+](=O)[O-])c5)c(Oc5cnc6[nH]cc(F)c6c5)c3)C4)[C@H](c3ccccc3C(C)C)C2)cc2c1OC(C)(C)C=C2` [Example 330, 2-((3-fluoro-1H-pyrrolo[2,3-b]pyridin-5-yl)oxy)-N-((4-((((1r,4r)-4-hydroxy-4-methylcyclohexyl)methyl)amino)-3-nitrophenyl)sulfonyl)-4-(6-((R)-2-(2-isopropylphenyl)-4-((8-methoxy-2,2-dimethyl-2H-chromen-6-yl)methyl)piperazin-1-yl)-2-azaspiro [3.3]heptan-2-yl)benzamide] was run?
**A.** 0.26 nM

**Q.** And the IC50 [2]?
**A.** 0.62 nM

**Q.** And the “Ratio of Bcl-2 G101V/WT” value [3]?
**A.** 2.4

**Q.** And the IC50 [4]?
**A.** 0.18 nM

**Q.** And the IC50 [5]?
**A.** 0.79 nM
